# Assay results published in US6710075B2, “Therapeutic compounds and methods” (The Government of the State of Sarawak, Malaysia, priority 2000, dated 2004).
# Read-outs that look alike come from different tables or passages of the source.
# Columns and labels:
# THP-1 cells [1] = test: DNA content analysis (cell cycle and viability) of THP-1 cells; format: cell-based, human; settings: THP-1, 10 nM, 2 days
# Experimental: THP-1 cells were cultured for 2 days with the indicated concentration of Compound A or 1000 nM paclitaxel then collected and fixed in 70% ethanol prior to staining with propidium iodide and DNA content determined by flow cytometry. The numbers indicate the % of cells in the various cell cycle phases relative to all cells with ≧2N DNA content and also the % dead cells (ie. subdiploid≦2N cells) to the left of the marker (the vertical line) that arose during the culture period.
# THP-1 cells [2] = test: WST-1 reduction by THP-1 cells; format: cell-based, human; settings: Homo sapiens
# Description: (a) Compounds A and B were identified from a bark sample of Aglaia leptantha through their ability to inhibit production of Tumour Necrosis Factor-α (TNF-α) by THP-1 human promonocytic leukemia cells (Tsuchiya, et al, Int. J. Cancer, 1980, 26(2):171-6) activated with lipopolysaccharide (LPS). Table 4 summarises the results comparing the activity of Compounds A and B for inhibition of TNF-α production to their effects on general cell metabolism measured using WST-1 reduction, DNA synthesis and protein synthesis assays for THP-1 cells. […] For comparison, the effects of Compounds A and B on A549 lung epithelial carcinoma cells (Leiber et al, Int. J. Cancer, 1976, 17(1)-62-70) were also measured and the data is also included in Table 4.
# [3] = Body weight in the mouse xenograft tumour model; format: in vivo
# Experimental: The ability of Compound A to inhibit growth of human tumour cells in vivo was assessed using male athymic mice injected subcutaneously in the dorsal flank region with 2×10^6 PC3 human prostate tumour cells. Compound A administration (3 mg/kg) by intraperitoneal injection commenced after eight days once the PC3 tumour was palpable and continued three times a week until 29 days after the initial inoculation of the tumour cells. At this time all mice were killed and tumours excised and weighed.
smiles,measurement,setting,value
"COC(=O)[C@H]1[C@@H](O)[C@@]2(O)c3c(OC)cc(OC4OC(C(O)CO)COC4OC)cc3O[C@@]2(c2ccc(OC)cc2)[C@@H]1c1ccccc1 (single isomer, unassigned) [Compound A]",cell cycle phase accumulation,THP-1 cells [1],caused cells to accumulate in the G0/G1 phases of the cell cycle
same,accumulation of dead cells,THP-1 cells [1]; untreated 7%,17%
same,IC50,"THP-1 cells [2]; THP-1, 18 h, THP-1 cells, 18 hours of culture, read-out: IC50 WST-1 Reduction",30 nM
same,IC50,"THP-1 cells [2]; THP-1, 72 h, THP-1 leukemic cells, cultured with compound for 3 days, read-out: IC50 (reduction of WST-1)",2 nM
same,body weight,"[3]; 3 mg/kg intraperitoneal three times a week, vs control",unaffected
same,decrease in mean body weight,"[3]; over the duration of the experiment, similar in control group",~12%
